Data reported in PubChem BioAssay (NCI).
Where “and” joins values, the source holds several entries; their conditions need not be identical. Equal values may be shown once.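 Grown in 96-well plates, cells were treated for 48 hours with each compound at five concentrations. Insufficient inhibition: endpoint recorded as highest concentration tested. GI50 = concentration required for 50% inhibition of growth. The concentration for full growth arrest is given as TGI.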

How the values were obtained:
Experiment in all cases: NCI-60 cell line screen, 48 h
CCRF-CEM leukemia = test system: CCRF-CEM leukemia
COLO 205 colon = test system: COLO 205 colon
SF-268 CNS = test system: SF-268 CNS
OVCAR-8 ovarian = test system: OVCAR-8 ovarian
U251 CNS = test system: U251 CNS
T-47D breast = test system: T-47D breast
CAKI-1 renal = test system: CAKI-1 renal
HOP-62 NSCLC = test system: HOP-62 NSCLC
MDA-MB-435 = test system: MDA-MB-435
HOP-92 NSCLC = test system: HOP-92 NSCLC

SMILES	GI50 (CCRF-CEM leukemia)	TGI (CCRF-CEM leukemia)	GI50 (COLO 205 colon)	TGI (COLO 205 colon)	GI50 (SF-268 CNS)	TGI (SF-268 CNS)	GI50 (OVCAR-8 ovarian)	TGI (OVCAR-8 ovarian)	GI50 (U251 CNS)	TGI (U251 CNS)	GI50 (T-47D breast)	TGI (T-47D breast)	GI50 (CAKI-1 renal)	TGI (CAKI-1 renal)	GI50 (HOP-62 NSCLC)	TGI (HOP-62 NSCLC)	GI50 (MDA-MB-435)	TGI (MDA-MB-435)	GI50 (HOP-92 NSCLC)	TGI (HOP-92 NSCLC)
COc1cc(NC(C)CCCN2C(=O)c3ccccc3C2=O)c2ncccc2c1OC (stereo not given)	49.2 µM	> 100 µM	31.9 µM	> 100 µM	55.7 µM	> 100 µM	34.9 µM	> 100 µM	46.8 µM	> 100 µM	35.7 µM	> 100 µM	29.5 µM	74.4 µM	52.6 µM	> 100 µM	34.2 µM	> 100 µM	18.2 µM	> 100 µM
Oc1cccc(-c2nc(-c3ccccc3)[nH]c2-c2ccncc2)c1	17.1 µM	> 25 µM	4.88 µM	12.2 µM	24.3 µM	> 25 µM	> 25 µM	> 25 µM	17.1 µM	> 25 µM	9.31 µM	24.3 µM	18.7 µM	> 25 µM	16.8 µM	> 25 µM	4.31 µM	> 25 µM	5.98 µM	24.2 µM
COC1=CC2CCN3Cc4cc5c(cc4C(C1O)C23)OCC5 (stereo not given)	–	> 100 µM	0.513 µM	1.92 µM	4.57 µM	> 100 µM	3.75 µM	37.3 µM	1.53 µM	11.4 µM	1.33 µM	6.51 µM	2.49 µM	8.36 µM	3.61 µM	> 61.4 µM	3.44 µM	21.3 µM	2.97 µM	> 28 µM
Cc1cc2c(cc1Cl)SC(C(=O)c1ccc(Cl)c(Cl)c1)NS2(=O)=O (stereo not given)	27.9 µM	61.2 µM	21 µM	44 µM	33.6 µM	88.6 µM	44.5 µM	> 100 µM	34.4 µM	> 100 µM	19.9 µM	49.9 µM	97.4 µM	> 100 µM	39.3 µM	> 100 µM	26.7 µM	65.6 µM	25.2 µM	65.9 µM
CNCCNc1nc2ccccc2c2c(=O)c3cccc(C)c3sc12	1.28 µM	3.85 µM	0.921 µM	1.92 µM	3.53 µM	11.4 µM	1.94 µM	7.65 µM	0.968 µM	2.25 µM	0.876 µM	2.25 µM	1.16 µM	6.73 µM	1.36 µM	8.81 µM	1.05 µM	2.22 µM	1.69 µM	10.8 µM
O=C1NC(=O)C(c2c[nH]c3ccccc23)=C1c1ccccc1	> 25 µM	> 25 µM	> 25 µM	> 25 µM	> 25 µM	> 25 µM	> 25 µM	> 25 µM	> 25 µM	> 25 µM	> 25 µM	> 25 µM	> 25 µM	> 25 µM	> 25 µM	> 25 µM	> 25 µM	> 25 µM	> 25 µM	> 25 µM
O=c1[nH]c(SCc2ccccc2[N+](=O)[O-])nc2nc[nH]c12	> 100 µM and 29.6 µM	> 100 µM	–	> 100 µM	–	> 100 µM	–	> 100 µM	–	> 100 µM	–	> 100 µM	–	> 100 µM	–	> 100 µM	–	> 100 µM	–	> 100 µM
CC12CC(=O)C3C(CCC4=CC(=O)CCC43C)C1CC=C2CC(=O)O (stereo not given)	–	> 100 µM	–	> 100 µM	–	> 100 µM	–	> 100 µM	–	> 100 µM	–	> 100 µM	–	> 100 µM	–	> 100 µM	–	> 100 µM	–	> 100 µM
Cc1cc(C#Cc2ccccc2)ccc1-n1c(/C=C/c2cc(O)ccc2O)nc2ccccc2c1=O	1.54 µM	7.13 µM	1.48 µM	2.8 µM	1.31 µM	3.07 µM	1.94 µM	5.4 µM	1.45 µM	2.77 µM	1.14 µM	3.67 µM	2.15 µM	7.24 µM	1.71 µM	3.79 µM	1.67 µM	3.53 µM	1.54 µM	4.33 µM
OCc1ccc(N(Cc2ccc(F)cc2)CC2CCC2)cc1Cl	15.1 µM	36 µM	13.5 µM	26.6 µM	17.1 µM	32.1 µM	14.7 µM	32.4 µM	5.43 µM	19.6 µM	2.11 µM	12.2 µM	2.04 µM	8.51 µM	10 µM	22.7 µM	15.4 µM	30 µM	0.839 µM	12.8 µM
O=C1/C(=C/c2ccccc2[N+](=O)[O-])COc2ccc(O)c(O)c21	0.365 µM	> 50 µM	0.71 µM	2.57 µM	1.18 µM	4.58 µM	0.525 µM	18.6 µM	0.922 µM	5.76 µM	0.918 µM	4.72 µM	0.607 µM	1.99 µM	3.55 µM	14.5 µM	0.691 µM	2.38 µM	1.1 µM	2.9 µM
N#Cc1ccc(/C=C/C(=O)c2ccccc2)cc1	8.31 µM and 2.86 µM	> 57 µM and 11.5 µM	6.34 µM and 14.3 µM	16.3 µM and 27.9 µM	13.3 µM and 9.61 µM	26.7 µM and 25.4 µM	9.07 µM and 11.2 µM	22.2 µM and 27.5 µM	2.95 µM and 3.76 µM	9.52 µM and 11.8 µM	11.1 µM and 12.2 µM	24.7 µM and 27.7 µM	15.1 µM and 9.59 µM	29.6 µM and 22.8 µM	22 µM and 18.4 µM	> 54.9 µM and 33.8 µM	6.28 µM and 8.07 µM	18 µM and 21.8 µM	16.9 µM and 17.6 µM	65.5 µM and 39 µM
CCc1ccc([O-])c(C=NCCCN(C)CCCN=Cc2cc(C)ccc2[O-])c1.[Co+3].[N-]=[N+]=[N-]	> 150 µg/mL	> 150 µg/mL	50 µg/mL and > 150 µg/mL	50 µg/mL and > 150 µg/mL	21.9 µg/mL and 53.3 µg/mL	50 µg/mL and > 150 µg/mL	31.9 µg/mL and 49.1 µg/mL	50 µg/mL and > 150 µg/mL	20.1 µg/mL and 33 µg/mL	50 µg/mL and 123 µg/mL	40 µg/mL	50 µg/mL	50 µg/mL and 66.9 µg/mL	50 µg/mL and > 150 µg/mL	10.5 µg/mL and 12 µg/mL	50 µg/mL and 34.5 µg/mL	50 µg/mL	50 µg/mL	15.9 µg/mL and 22 µg/mL	50 µg/mL and 54.7 µg/mL
